# Laboratory results from patent EP2891491A1, “Use of (r)-phenylpiracetam for the treatment of sleep disorders” (Merz Pharma GmbH & Co. KGaA, priority 2014, dated 2015).
# Assays:
# [1] = model for depression; cited from earlier work
# [2] = system: extracellular dopamine levels in rat striatum; experiment: brain microdialysis: extracellular dopamine levels in rat striatum; assay type: in vivo, rats; conditions: 100 mg/kg i.p.
# Protocol: EXAMPLE 2: Assessment of (R)-phenylpiracetam on extracellular dopamine levels in rat striatum using brain microdialysis - Fig. 1
# (R)-Phenylpiracetam was dissolved in saline and injected intraperitoneally (i.p).
# Adult male Sprague-Dawley rats (n = 5, ∼300 g; Harlan, The Netherlands) were used for the experiments. After surgery animals were housed individually (cages 30 cm x 30 cm x 40 cm) with food and water was ad libitum available at standard conditions. The post-surgery interval for recovery was minimally 48 h.
# Rats were anesthetized using isoflurane (2%, 800 ml/min O2), and placed in a stereotaxic frame (Kopf instruments, USA). […]
# Concentrations of DA and DOPAC were determined in the same sample, by HPLC separation and electrochemical detection. DA and DOPAC were detected electrochemically using a potentiostate (Antec Leyden, model Intro, the Netherlands) fitted with a glassy carbon electrode set at +500 mV vs. Ag/AgCl (Antec Leyden, the Netherlands). Data was analyzed by Chromatography Data System (Shimadzu, class-vp, Japan) software. Concentrations were quantified by the external standard method.
# After transmitter levels were stabilized, four consecutive pre-treatment microdialysis samples with less than 50% variation were taken as baseline and their mean was set at 100%. […] Transmitter concentration in each fraction was expressed as % ± SEM (standard error mean) of baseline.
# [3] = system: rats; experiment: electroencephalography (EEG) screen in freely moving rats; assay type: in vivo
# Protocol: EXAMPLE 5: Testing of (R)-phenylpiracetam in an electroencephaloaraphy (EEG) screen - Fig. 4
# (R)-Phenylpiracetam was tested at four different concentrations (1 mg/kg, 12.5 mg/kg, 25 mg/kg, and 50 mg/kg) in an EEG screen as described by Dimpfel (Dimpfel, Neuropsychobiology, 58 (2008)178-86).
# Eight adult Fisher 344 rats (8 months of age, kept on inverse light-dark cycle, weight about 400 g, provided by Charles River Laboratories, D-97633, Sulzfeld) were used in this experimental series. Animals were implanted with electrodes into the brain and were given two weeks for recovery from surgery. After this the transmitter was plugged in for adaptation and control experiments.
# The animals were allowed to acclimatize for at least 4 weeks before the study started. There was automatic control of light cycle, temperature and humidity. Light hours were 18 h in the evening - 6 h in the morning. […] Cages, bedding, and water bottles were changed at regular intervals, i.e. every 2-3 days. Standard diet (Nohrlin H10, Altromin, D-32791 Lage, Germany) was available to the animals ad libitum. The animals had access to domestic quality mains water ad libitum.
# Rats were implanted with 4 bipolar concentric steel electrodes within a stereotactic surgical procedure during anaesthesia with ketamine. All four electrodes were placed 3 mm lateral within the left hemisphere. Dorsoventral coordinates were 4, 6, 4.2 and 8 mm and anterior coordinates were 3.7, 9.7, 5.7 and 12.2 mm for frontal cortex, striatum, hippocampus, and reticular formation, respectively (according to the atlas of Paxinos and Watson, 1982). A pre-constructed base plate carrying 4 bipolar stainless steel semi-micro electrodes (neurological electrodes "SNF 100" from Rhodes Medical Instruments, Inc., Summerland, CA 93067, USA) and a 5-pin-plug was fixed to the skull by dental cement interacting with 3 steel screws placed on distance into the bone. The distant recording spot of the electrode was the active electrode whereas the proximal spots of the four electrodes were connected to each other to give a reference. The base plate was carrying a plug to receive later on the transmitter (weight: 5.2 g including battery, 26 mm x 12 mm x 6 mm of size).
# EEG signals were recorded from frontal cortex, hippocampus, striatum and reticular formation of freely moving rats from inside a totally copper shielded room. Signals were wirelessly transmitted by a radio-telemetric system (Rhema Labortechnik, Hofheim, Germany, using 40 MHz as carrier frequency) and were amplified and processed as described earlier to give power spectra of 0.25 Hz resolution (Dimpfel et al. 1986; Dimpfel et al. 1988; Dimpfel et al. 1989; Dimpfel, 2003). […]
smiles,measurement,setting,value
NC(=O)CN1C[C@@H](c2ccccc2)CC1=O [(R)-phenylpiracetam],potency in the forced swim test,[1],only slightly more potent than (S)-phenylpiracetam
same,concentration of dopamine in the striatum,[2],increases extracellular dopamine levels
same,"theta, delta, alpha1 and beta2 waves in the reticular formation",[3]; EEG pattern compared with nootropics,no change
same,alpha2 and beta1 waves,"[3]; i.p., 1, 12.5, 25 and 50 mg/kg",dose dependent attenuation
same,theta power within the frontal cortex,"[3]; i.p., highest dosage",increases
same,Motility,"[3]; i.p., video tracking during EEG",increased
